Molecules are shown by their SMILES. Where two headings read alike, the source gives them in different places.

Assay [1] has as its system P. falciparum 3D7 parasites. Kind of assay: Standard 72 h antiplasmodial viability assay, 3D7. The settings on record: for Pf3D7 LD50 (72 h): sorbitol-treated ring stage, viability in next cycle (~72 h); for Pf3D7 LD50 (72-h): supplement CSV. The class given is cell-based, Plasmodium falciparum. The method, then: P. falciparum parasites used in this study were propagated in O+ human erythrocytes (Australian Red Cross Blood Service) in RPMI-1640, supplemented with GlutaMAX, 25 mM HEPES (Thermo Fisher Scientific), 5% (v/v) human serum (Australian Red Cross Blood Service), 0.25% (w/v) AlbuMAX II (Thermo Fisher Scientific), 10 μM D-glucose, 22 μg/mL gentamycin (Sigma-Aldrich), and 0.5 mM hypoxanthine (Sigma-Aldrich) and incubated at 37 °C in an atmosphere of 1% O2, 5% CO2, and 94% N2. Cultures were monitored by Giemsa staining of methanol-fixed blood smears. Culture medium was replaced at least every 48 h, and parasitemia was maintained below 10% to ensure health of cultures. The GFP-DD reporter strain was kindly provided by Dr. Paul Gilson, Dr. Brendan Crabb, and Dr. Mauro F. Azevedo (Burnet Institute).
(§1) For standard assays of antiplasmodial activity, sorbitol-treated ring stage parasites were incubated with the drugs for 72 h and viability was assessed in the second cycle.[12] Drug pulse assays were performed as described previously.[47] For short pulse assays, tightly synchronized early ring stage parasites (1–3 h after invasion) at 0.2% hematocrit and 1–2% parasitemia were subjected to 3 h drug pulse at 37 °C and returned to culture until parasites reached trophozoite stage of the following cycle. Cells were then stained with 2 μM Syto-61 (Thermo Fisher Scientific), and their fluorescence was measured by flow cytometry (FACSCanto II cytometer; Becton Dickinson). Data were gated and analyzed using FCS Express software (version 3) to determine parasitemia of each sample. Viability represents the parasitemia normalized to untreated and “kill treated” controls, where “kill treated” refers to samples treated with 2 μM DHA for 48–72 h. Interactions between DHA and MPI-1 or MPI-4 against the K13 mutant (DHA resistant) Cam3.II P. falciparum strain, exposed to a 3 h pulsed treatment, were determined at 4 h after invasion as described previously.[12]

For assay [2], the system named is Pf20S proteasome subunits of bortezomib-resistant parasites. Kind of assay: BMV037 active site probe competition, bortezomib-resistant parasites. The class given is biochemical, P. falciparum. The settings on record: compounds 1 h. The method, then:
Figure 3 Active site probe analysis of the proteasome subunit specificity of the selected compounds in 3D7 parent and bortezomib-resistant parasites. Purified Pf20S proteasome from wild-type 3D7 (A) and bortezomib-resistant (C) parasites or wild-type 3D7 (B) and bortezomib-resistant (D) trophozoite-infected erythrocytes were treated with compounds for 1 h, and activity-based probe (BMV037) labeling was performed (postlysis for the trophozoite samples). Fluorescent gel scans reveal subunits that remain active after treatment.
P. falciparum culture, purified Pf20S proteasomes, human constitutive proteasomes, or immunoproteasomes (Boston Biochem) were incubated with test compounds at 37 °C for 1 h. Treated parasite lysates (10 μg), Pf20S proteasomes (80 nM), human constitutive proteasomes (20 nM), or immuno-20S proteasomes (20 nM) were labeled with BMV037 (10 μM) at 37 °C for 2 h. Samples were mixed with SDS loading buffer and heated at 95 °C for 5 min. Samples for P. falciparum and human immuno-20S were run on 4–12% Bis-Tris acrylamide gels using MES SDS running buffer (Thermo Fisher Scientific). Human constitutive 20S samples were run on a 10% Bis-Tris acrylamide gel using MOPS SDS running buffer (Thermo Fisher Scientific). Gels were imaged at the Cy5 channel on a Gel Doc XR+ Documentation System (Bio-Rad) or an Amersham Typhoon Trio imager (GE Healthcare Life Sciences).

In the next assay the test system is HepG2 cells. Kind of assay: HepG2 cellular toxicity (CellTiter-Glo, 72 h). The class given is cell-based, human. As to conditions: for HepG2 LD50 (72 h): 72 h incubation, mean ± SEM or half range, 2–4 experiments; for HepG2 LD50( 72-h): supplement CSV.
Assay [3] has as its system bortezomib-resistant 3D7 B1 line (clone B1a). Put plainly: 72 h viability assay, bortezomib-resistant B1 line / clone B1a. It counts as cell-based, Plasmodium falciparum. As to conditions: for bortezomib-resistant 3D7 B1 line LD50 (72 h): ring stage; for Bortezomib-resistant3D7 B1 LD50 (72-h): supplement CSV. The method, then: as §1
Prior to selection, an aliquot of the parental line was stocked as a reference for subsequent whole genome sequencing analysis. Several independent clones of P. falciparum 3D7 parasite line were cultured in Petri dishes exposed to increasing drug pressure for ∼30 weeks. Parasites were cloned by limiting dilution. For parasite extraction and genomic DNA isolation, cultures were scaled up to at least 4–5% parasitaemia, lysed in saponin, and genomic DNA was isolated using ISOLATE II Genomic DNA kit (Bioline). DNA libraries for each gDNA sample were prepared for sequencing using the Nextera XT kit as described previously.[50] Libraries were clustered and run on an Illumina HiSeq 2500 using the RapidRun mode, sequencing 100 base pairs in depth on either end. Paired-end reads were either aligned to the P. falciparum 3D7 reference genome (PlasmoDB version 13.0).

Assay [4] relates to Pf20S proteasome β1, β2, β5 subunits. It counts as biochemical, P. falciparum.
The subject of assay [5] is P. falciparum Cam3.II^R539T. Kind of assay: 3 h pulsed exposure viability assay, K13 mutant early rings. The settings on record: for Cam3.II^R539T LD50 (3 h): early ring (1–3 h p.i.), 3 h pulse, viability in next cycle, mean ± SEM, n=3; for Cam3.IIR539T LD50 (3-h): supplement CSV. It counts as cell-based, Plasmodium falciparum. The method, then: as §1
Assay [6] has as its system P. falciparum Cam3.II^Rev. Put plainly: 3 h pulsed exposure viability assay, K13 wild-type revertant early rings. The class given is cell-based, Plasmodium falciparum. The settings on record: for Cam3.II^Rev LD50 (3 h): early ring (1–3 h p.i.), 3 h pulse, viability in next cycle, mean ± SEM, n=3; for Cam3.IIRev LD50 (3-h): supplement CSV. The method, then: as §1
In a further assay the test system is HCT116 cells. Kind of assay: HCT116 cellular toxicity (CellTiter-Glo, 72 h). It counts as cell-based, human. As to conditions: for HCT116 LD50 (72 h): 72 h incubation, mean ± SEM or half range, 2–4 experiments; for HCT116 LD50 (72-h): supplement CSV. The method, then: HCT-116 and HepG2 cells were obtained from the American Type Culture Collection and maintained as recommended by the supplier. Cells were cultured in the ATCC-formulated McCoy’s 5A medium or DMEM (Life Technologies, CA), supplemented with fetal bovine serum to a final concentration of 9–10%, and incubated at 37 °C in an atmosphere of 95% air and 5% CO2. Cellular toxicity assays were performed using Promega’s CellTiter-Glo assay system. Varying concentrations of the test compounds in 5% DMSO/95% PBS were dispensed into a 384-well plate and cells added to each well. The plates were incubated at 37 °C for 72 h, and the CellTiter-Glo assay to assess cell viability was performed as described by the manufacturer (Promega).
For human cell line activity assays, cellular toxicity assays were performed as described previously.[23],[48]
A general note: In ATP-based viability assays light output follows the ATP content of the culture.

The subject of assay [7] is human constitutive proteasome and immunoproteasome catalytic subunits. Kind of assay: BMV037 active site probe competition, purified human 20S proteasomes. The class given is biochemical. As to conditions: for subunit specificity by BMV037 probe labeling, human constitutive proteasome and immunoproteasome: compounds 1 h, probe 2 h.
Where [8] appears, read: compounds 1 h, purified Pf20S or infected erythrocytes.

For `CC(=O)N1CCC[C@@H]1C(=O)N[C@@H](C)C(=O)N[C@@H](Cc1ccccc1)B(O)O` [MPI-1], the “Pf3D7 LD50 (72 h)” value in [1] (mean ± SEM, n=3) worked out at 0.12 ± 0.01 µM. In addition, in [1], the “Pf3D7 LD50 (72-h)” value is listed as 0.12 ± 0.01 µM. In [2], the “BMV037 labeling of the β5 active site in bortezomib-resistant parasites” value is given as “still able to prevent BMV037 labeling of the β5 active site”. In addition, in the assay with HepG2 cells, the “HepG2 LD50 (72 h)” value was 6.7 ± 3.2 µM and the “HepG2 LD50( 72-h)” value was found to be 6.7 ± 3.2 µM. The “bortezomib-resistant 3D7 B1 line LD50 (72 h)” value in [3] (mean ± SEM, n=3) amounted to 0.23 ± 0.04 µM. The “Bortezomib-resistant3D7 B1 LD50 (72-h)” value in assay [3] was determined as 0.23 ± 0.04 µM. In addition, the “subunit specificity by BMV037 probe labeling, wild-type 3D7” value (“subunit specificity … wild-type 3D7” for short) in [4] (setting [8]) is reported as “preferentially inhibited binding of the probe to the β5 subunit”. Besides, in assay [5], the “Cam3.II^R539T LD50 (3 h)” value was 0.82 ± 0.06 µM and the “Cam3.IIR539T LD50 (3-h)” value was found to be 0.82 ± 0.06 µM. In addition, in [6], the “Cam3.II^Rev LD50 (3 h)” value was found to be 0.9 ± 0.1 µM and the “Cam3.IIRev LD50 (3-h)” value is 0.9 ± 0.1 µM. Further, in the assay on HCT116 cells, the “HCT116 LD50 (72 h)” value worked out at 0.79 ± 0.01 µM and the “HCT116 LD50 (72-h)” value is on record as 0.79 ± 0.01 µM. In addition, in assay [7] (10 μM), the “binding of the BMV037 probe to β5c after treatment” value was “did not completely ablate binding of the probe to β5c”. The “subunit specificity by BMV037 probe labeling, human constitutive proteasome and immunoproteasome” value in [7] is “preferentially targeted the β5 subunits”.

Turning to `CC(C)C[C@H](NC(=O)[C@H](Cc1ccccc1)NC(=O)Cc1ccc(O)cc1)B(O)O` [MPI-4], in assay [1] (mean ± SEM, n=3), the “Pf3D7 LD50 (72 h)” value amounted to 0.061 ± 0.007 µM. For the same compound, the “Pf3D7 LD50 (72-h)” value in assay [1] turned out to be 0.061 ± 0.007 µM. In assay [2], the “BMV037 labeling of the β2 active site in bortezomib-resistant parasites” value is on record as “completely inhibit BMV037 labeling of the β2 active site” and the “BMV037 labeling of the β5 active site in bortezomib-resistant parasites” value was “did not prevent labeling of the β5 active site”. Also, in the assay on HepG2 cells, the “HepG2 LD50 (72 h)” value is 0.04 ± 0.01 µM and the “HepG2 LD50( 72-h)” value turned out to be 0.04 ± 0.01 µM. Further, the “cross-resistance of the bortezomib-resistant parasite line (B1)” value in [3] (growth inhibition, versus 3D7) is listed as “retained sensitivity”. The “bortezomib-resistant 3D7 B1 line LD50 (72 h)” value in assay [3] (mean ± SEM, n=3) was found to be 0.077 ± 0.001 µM. The “Bortezomib-resistant3D7 B1 LD50 (72-h)” value in assay [3] is 0.077 ± 0.001 µM. Further, the “subunit specificity … wild-type 3D7” value in assay [4] (setting [8]) is “inhibited both β2 and β5 activities”. Also, in assay [5], the “Cam3.II^R539T LD50 (3 h)” value is 0.16 ± 0.01 µM and the “Cam3.IIR539T LD50 (3-h)” value was determined as 0.16 ± 0.01 µM. In assay [6], the “Cam3.II^Rev LD50 (3 h)” value was found to be 0.18 ± 0.02 µM and the “Cam3.IIRev LD50 (3-h)” value was found to be 0.18 ± 0.02 µM. Also, in the assay on HCT116 cells, the “HCT116 LD50 (72 h)” value is 0.025 ± 0.014 µM and the “HCT116 LD50 (72-h)” value worked out at 0.025 ± 0.014 µM. In addition, in [7], the “subunit specificity by BMV037 probe labeling, human constitutive proteasome and immunoproteasome” value was “preferential inhibition of the β1 and β5 subunits”.

In the case of `CC(C)C[C@H](NC(=O)[C@H](Cc1ccccc1)NC(=O)c1cnccn1)B(O)O` [bortezomib, reference compound], the IC50 in [1] (Plasmodium falciparum, 3D7, dose–response profiles, n = 3, read-out: 50% viability inhibitory concentration against 3D7 parasites) is around 60 nM. The “LD50 (72 h), 3D7 parent” value in [1] (bortezomib, wild-type parent clone, mean ± SEM, n=3) was 0.06 ± 0.01 µM. Moreover, the “Pf3D7 LD50 (72 h)” value in assay [1] (mean ± SEM, n=3) was found to be 0.06 ± 0.01 µM. For the same compound, the “Pf3D7 LD50 (72-h)” value in [1] amounted to 0.06 ± 0.01 µM. In [2], the “BMV037 competition profile in bortezomib-resistant parasites” value is reported as “unable to prevent binding of the probe”. For the same compound, in the assay with HepG2 cells, the “HepG2 LD50 (72 h)” value was found to be 0.03 ± 0.02 µM and the “HepG2 LD50( 72-h)” value came to 0.03 ± 0.02 µM. Besides, in assay [3] (bortezomib, resistant clone B1a, mean ± SEM, n=3), the “LD50 (72 h), 3D7 B1a” value was 1.3 ± 0.1 µM. The “Bortezomib-resistant3D7 B1 LD50 (72-h)” value in assay [3] is on record as 1.3 ± 0.1 µM. Further, the “subunit specificity … wild-type 3D7” value in [4] is listed as “preferential inhibition of the β5 activity”. Moreover, in [5], the “Cam3.II^R539T LD50 (3 h)” value came out at 0.12 ± 0.02 µM and the “Cam3.IIR539T LD50 (3-h)” value turned out to be 0.12 ± 0.02 µM. In assay [6], the “Cam3.II^Rev LD50 (3 h)” value was 0.18 ± 0.06 µM and the “Cam3.IIRev LD50 (3-h)” value is 0.18 ± 0.06 µM. Further, in the assay on HCT116 cells, the “HCT116 LD50 (72 h)” value came out at 0.006 ± 0.001 µM and the “HCT116 LD50 (72-h)” value was 0.006 ± 0.001 µM. Moreover, the “subunit specificity by BMV037 probe labeling, human constitutive proteasome and immunoproteasome” value in assay [7] is “preferentially inhibits the β1 and β5 subunits”.

The record behind these values is paper PMC6257627, “Target Validation and Identification of Novel Boronate Inhibitors of the Plasmodium falciparum Proteasome” (Journal of Medicinal Chemistry, 2018).
